Article PMC8270260, “4,7-Disubstituted 7H-Pyrrolo[2,3-d]pyrimidines and Their Analogs as Antiviral Agents against Zika Virus” (Molecules, 2021)

Experiments:
[1] = Cell viability assay (MTS); assay type: cell-based; conditions: human, non-infected Huh7 cells; for viability at 10 µM: normalized to DMSO; for CC50 at 72 h: Huh7 cells
Method: Cell viability assays for non-infected Huh7 cells treated with the testing compounds (in-house library), control compounds (NITD008, RDV) and DMSO were performed in parallel with the antiviral screening. After 3 or 5 days of treatment, depending upon the experiment, cell viability was evaluated using the MTS-based tetrazolium reduction CellTiter 96 Aqueous Non-Radioactive cell proliferation assay (Promega). Treatment was retired from the wells and the cells incubated with MTS diluted 1:10 in MEM medium supplemented with 10% FBS. Absorbance was measured at 490 nm wavelength. Readings were normalized with DMSO-treated cells (100%) and expressed as % viability. For dose-response experiments, we used concentrations between 0.01 and 90 µM and dose-response curves and CC50 were calculated using GraphPad Prism.

ZIKV [2] = assay: ZIKV titer-reduction assay (plaque assay); assay type: cell-based, Zika virus; conditions: Huh7, MOI 0.2, 72 hpi; for inhibition at 8.5 µM / EC50 / EC90 / inhibition at 1.5 µM: Zika virus; for inhibition at 8.5 µM / inhibition at 1.5 µM: Huh-7, 72 h; for EC50 / EC90: Huh-7
Method: (§1) Selected compounds were validated at 8.5 µM or 1.5 µM (for compounds considered toxic at higher concentrations) using titer-reduction assays. Huh7 cells (1.5 × 10^5 per well) were plated in 24-well plates. Next day, the cells were inoculated with ZIKV or DENV (MOI 0.2 or 0.05, respectively) and two hours later, the inoculum was replaced with post-infection medium containing compound of interest at 8.5 µM or 1.5 µM. Seventy-two hpi, supernatants from infected and treated cells were collected and viral titers were measured by plaque assay. To visualize plaques, confluent Vero cells in 24-well plates were inoculated with 1:10 serial dilutions of supernatants. After two hours, the inoculum was retired and replaced with 800 µL of overlay medium (MEM medium containing 1.3% methylcellulose, 2% FBS, 100 IU streptomycin/penicillin per mL and 10 mM HEPES). After 5 days (7 days for DENV), cells were washed with PBS, fixed with 2% formaldehyde, and stained using 0.5% crystal violet in 25% methanol. Infectious virus titer (pfu/mL) was determined using the following formula: number of plaques × dilution factor × (1/inoculum volume (mL)). Viral titers were normalized with DMSO-treated and infected cells (0% inhibition). The limit of detection was 200 pfu/mL (100% inhibition). […] Dose-response assays (Figure S4, Panels B and C) were performed for selected compounds using titer-reduction assays. We used a concentration range of 0.5 to 15 µM for all selected compounds except for compound 14 (range of 0.1–3 µM). Pfu/mL were normalized as mentioned for single-dose response experiment using the values for DMSO-treated and infected cells (0% inhibition) and the limit of detection value (200 pfu/mL) as 100% inhibition. Dose-response curves were built in GraphPad Prism and EC50 values were obtained from those curves.

DENV-2 = assay: DENV titer-reduction assay (plaque assay); assay type: cell-based, dengue virus; conditions: 8.5 µM (compound 14 at 1.5 µM), Huh7, MOI 0.05, 72 h
Method: as §1
Figure 2 Inhibition of DENV by selected compounds. Huh7 cells were plated in 24 well plate. Next day, cells were inoculated with DENV (MOI = 0.05). After 2 h of infection inoculum was retired and the cells were treated with inhibitors at 8.5 µM (except for compound 14, 1.5 µM) for 72 h. Next, supernatants were assayed for viral titer by plaque assay and titers were normalized vs DMSO and expressed as % inhibition. The experiment was performed two independent times and each sample was performed in triplicate. The bars depict mean plus standard error of the mean.

ZIKV NS5 MTase = ZIKV NS5 MTase (Zika virus, UniProt A0A024B7W1); assay: ZIKV NS5 MTase biochemical assay; conditions: read-out: IC50 against ZIKV NS5 MTase
Sequence of ZIKV NS5 MTase (A0A024B7W1 2521-2785): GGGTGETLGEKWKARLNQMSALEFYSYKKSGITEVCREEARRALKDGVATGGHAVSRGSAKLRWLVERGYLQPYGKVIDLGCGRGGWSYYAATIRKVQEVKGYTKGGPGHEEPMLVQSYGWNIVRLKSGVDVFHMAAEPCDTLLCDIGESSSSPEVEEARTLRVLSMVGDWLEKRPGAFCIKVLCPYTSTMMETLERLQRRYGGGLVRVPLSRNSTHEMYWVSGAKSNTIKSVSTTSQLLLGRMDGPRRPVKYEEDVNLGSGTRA

ZIKV [3] = assay: ZIKV reporter assay (luciferase-expressing ZIKV PAN1 Nluc in Huh7 cells); assay type: cell-based; conditions: Zika virus, Huh-7, Huh7, MOI 0.2, 72 hpi
Method: The initial screening for ZIKV was performed using the in-house developed infectious ZIKV reporter expressing Nanoluc (ZIKV PAN1 Nluc) (see details in SI). Briefly, 1.5 × 10^4 Huh7 cells per well were seeded in 96 well plates. Next day, cells were inoculated with the ZIKV reporter at a multiplicity of infection (MOI) of 0.2 in infection medium (MEM medium supplemented with 1% FBS, 100 IU streptomycin/penicillin per mL, 1 mM sodium pyruvate and 10 mM HEPES). After 2 h, the inoculum was replaced with post-infection medium (MEM medium supplemented with 5% FBS, 100 IU streptomycin/penicillin per mL, 1 mM sodium pyruvate and 10 mM HEPES) containing compound of interest (10 µM). We used the flavivirus NS5 MTase inhibitor NSC12155^13 (10 µM) and the NS5 RdRp inhibitor NITD008^12 (1 µM) as positive controls for inhibition or 0.05% DMSO as vehicle control. Seventy-two hours post-infection (hpi), the cells were lysed with 50 µL 1× luciferase lysis buffer (Promega, Madison, WI, USA), incubated 10 min at room temp and stored at −80 °C. Thirty-five µL of lysed cells were transferred to a white 96-well plate and combined with 35 µL Nano-Glo® luciferase assay substrate (Promega) diluted 1:50 in Nano-Glo® luciferase assay buffer (Promega). The reaction was incubated for 2 min and luminescence readings were acquired using a Neo 2 plate reader (BioTek, Winooski, VT, USA). Percent inhibition was calculated in GraphPad Prism (San Diego, CA, USA) normalizing the luciferase signal to infected cells treated with DMSO (0% inhibition) and uninfected cells treated with DMSO (100% inhibition). EC50 values were calculated in GraphPad Prism using data obtained from dose-response experiments. For compounds 1 and 8, a range of concentrations between 0.05 and 15 µM were used. For compounds 11, 14, 23 and NSC12155, we used concentrations from 0.005 to 90 µM and 0.002 to 45 µM for NITD008.

| Structure (SMILES) | viability at 10 µM [1] | CC50 at 72 h [1] | inhibition at 8.5 µM (ZIKV [2]) | EC50 (ZIKV [2]) | EC90 (ZIKV [2]) | Inhibition of DENV (% inhibition / protection) (DENV-2) | IC50 (ZIKV NS5 MTase) | inhibition at 10 µM (ZIKV [3]) | EC50 (ZIKV [3]) | inhibition at 1.5 µM (ZIKV [2]) | Titer Reduction Assay EC99 (ZIKV [2]; NR = not reached) |
| --- | --- | --- | --- | --- | --- | --- | --- | --- | --- | --- | --- |
| O=[N+]([O-])c1ccc(Cn2ccc3c(NCc4cccc(Cl)c4)ncnc32)cc1 [Compound 1, N-(3-Chlorobenzyl)-7-(4-nitrobenzyl)-7H-pyrrolo [2,3-d]pyrimidin-4-amine] | 69% | 20 µM | 93% | 5.21 µM | 10.7 µM | among the top inhibitors | > 100 µM | 73% | 5.25 µM |  |  |
| N#Cc1ccc(Cn2ccc3c(NCc4cccc(Cl)c4)ncnc32)cc1 [Compound 8, 4-((4-((3-Chlorobenzyl)amino)-7H-pyrrolo[2,3-d]pyrimidin-7-yl)methyl)benzonitrile] | 68% | 20.6 µM | 97% | 4.29 µM | 9.02 µM | among the top inhibitors |  | 78% | 4.1 µM | 47% |  |
| N#Cc1cccc(Cn2ccc3c(NCc4cccc(Cl)c4)ncnc32)c1 [Compound 11, 3-((4-((3-Chlorobenzyl)amino)-7H-pyrrolo[2,3-d]pyrimidin-7-yl)methyl)benzonitrile] | 60% | 15.3 µM | 99% | 5.05 µM | 6.98 µM | among the top inhibitors |  | 90% | 3.16 µM |  |  |
| O=[N+]([O-])c1ccc(Cn2ccc3c(NCc4cc(Cl)ccc4Cl)ncnc32)cc1 [Compound 22, N-(2,5-Dichlorobenzyl)-7-(4-nitrobenzyl)-7H-pyrrolo[2,3-d]pyrimidin-4-amine] | 62% | 26.9 µM | 77% |  |  |  |  | 71% |  |  |  |
| O=[N+]([O-])c1ccc(Cn2ccc3c(NCc4ccc(Cl)c(Cl)c4)ncnc32)cc1 [Compound 23, N-(3,4-Dichlorobenzyl)-7-(4-nitrobenzyl)-7H-pyrrolo[2,3-d]pyrimidin-4-amine] | 80% | 26.8 µM | 98% | 5.91 µM | 10.4 µM | among the top inhibitors |  | 91% | 5.7 µM |  | 12.0 µM |
| O=[N+]([O-])c1ccc(Cn2ccc3c(NCc4cccc5ccccc45)ncnc32)cc1 [Compound 24, N-(Naphthalen-1-ylmethyl)-7-(4-nitrobenzyl)-7H-pyrrolo[2,3-d]pyrimidin-4-amine] | 44% |  |  |  |  |  |  | 94% |  | 13% |  |
| O=[N+]([O-])c1ccc(Cn2cnc3c(NCc4cccc(Cl)c4)ncnc32)cc1 [Compound 29, N-(3-Chlorobenzyl)-9-(4-nitrobenzyl)-9H-purin-6-amine] | 87% | 24.5 µM | 90% |  |  |  |  | 59% |  |  |  |
| N#Cc1ccc(Cn2cnc3c(NCc4cccc(Cl)c4)ncnc32)cc1 [Compound 30, 4-((6-((3-Chlorobenzyl)amino)-9H-purin-9-yl)methyl)benzonitrile] | 94% | 49.3 µM | 93% | 7.12 µM | 12.4 µM |  |  | 68% |  |  |  |
| O=[N+]([O-])c1ccc(Cn2ncc3c(NCc4cccc(Cl)c4)ncnc32)cc1 [Compound 31, N-(3-Chlorobenzyl)-1-(4-nitrobenzyl)-1H-pyrazolo[3,4-d]pyrimidin-4-amine] | 96% |  | 86% |  |  |  |  | 83% |  |  |  |
| N#Cc1ccc(Cn2ncc3c(NCc4cccc(Cl)c4)ncnc32)cc1 [Compound 32, 4-((4-((3-Chlorobenzyl)amino)-1H-pyrazolo[3,4-d]pyrimidin-1-yl)methyl)benzonitrile] | 88% | 17.4 µM | 88% |  |  |  |  | 79% |  |  |  |
| Cc1cc(N)c2cc(NC(=O)Nc3ccc4nc(C)cc(N)c4c3)ccc2n1 [NSC 12155, reference compound] | 70% | 23 µM | 72% | 7.34 µM | 14.1 µM |  |  | 68% | 2.18 µM | 37% |  |
